Measurements published in publication PMC10187093, “Synthesis, in silico modelling, and in vitro biological evaluation of substituted pyrazole derivatives as potential anti-skin cancer, anti-tyrosinase, and antioxidant agents” (Journal of Enzyme Inhibition and Medicinal Chemistry, 2023).
Where two headings read alike, the source gives them in different places.

Tests used:
SK-MEL-28 = test: MTT antiproliferative/cytotoxicity assay, SK-MEL-28; format: cell-based, human; details: melanoma, MTT, 48 h, read-out: IC50 SKMEL-28
Method: (§1) Human-derived GFP-expressing melanoma A375 and epidermoid carcinoma A431 cell lines were purchased from Angio-Proteomie (Boston, MA). Human melanoma carcinoma SK-MEL-28 and human immortalised keratinocytes (HaCaT) cell lines were acquired from American Type Culture Collection (ATCC; Manassas, VA). Human cutaneous SCC cell line SCC-12[192] was generously provided by Dr. James G. Rheinwald to Dr. Tatiana Efimova. Except SK-MEL-28, which was cultured in an RPMI-1640 medium supplemented with 5% FBS, all other human immortalised cell lines were grown and maintained in DMEM containing varying percentages of FBS; 5% FBS for A431, SCC-12, and HaCaT lines, and 10% FBS for A375. All culture media were routinely supplemented with 1% PEST 100X (100 U/mL penicillin, 100 μg/mL streptomycin), and cells were cultured in incubators maintained at 37 °C under an atmosphere of 95% humidity, 20% O2, and 5% CO2. The growth media of incubated cells were changed every 2–3 days until they attained 70–80% confluence, after which they were sub-cultured for experiments and re-passaging. DMSO was used as the vehicle to prepare a 10 mM stock solution of the test compounds.
(§2) Stock solutions (10 mM) were prepared by dissolving each compound to be screened in DMSO. From these stock solutions, escalating concentrations were prepared using the corresponding cell growth media as a diluent, and the cells (65–75% confluent) were treated with (0–40 µM) or without the drug in sext- to octuplicate and incubated for 48 h. All treatment protocols and controls were prepared as previously described.
(§3) The potency and cytotoxicity of the test compounds against two cutaneous melanoma (A375 and SK-MEL-28) and two non-melanoma (A431 and SCC-12) SC cell lines in addition to a control immortalised normal human epidermal keratinocytes (HaCaT) cell line were assessed by MTT assay as previously described.

HaCaT = test: MTT cytotoxicity assay, noncancerous HaCaT keratinocytes; format: cell-based, human; details: control noncancerous keratinocytes, MTT, 48 h, read-out: IC50 HaCaT
Method: as §1, §2, §3

[1] = DPPH free radical scavenging assay; details: for Percent Scavenging (DPPH): 1 mM
Method: An initial screen was done of all 25 derivatives at a concentration of 1 mM. […] Methanol was used as the diluent, and 100 µL of DPPH (200 µM; Sigma-Aldrich, St. Louis, MO) was added to each well. […] The scavenging capacity (SC) was calculated as SC% = ((ΔAcontrol – ΔAsample)/ΔAcontrol) × 100%, where ΔAcontrol was the absorbance of the reagent blank, and ΔAsample was the absorbance of the test samples. The control contained all reagents except the compounds, and all tests were performed in triplicate. Quercetin served as a positive control. The DPPH methanolic solution (1 mL) mixed with DMSO (5 µL) served as a negative control.

GFP-A431 = test: MTT antiproliferative/cytotoxicity assay, A431; format: cell-based, human; details: for IC50: read-out: IC50 GFP-A431
Method: (§4) Human-derived GFP-expressing melanoma A375 and epidermoid carcinoma A431 cell lines were purchased from Angio-Proteomie (Boston, MA). Human melanoma carcinoma SK-MEL-28 and human immortalised keratinocytes (HaCaT) cell lines were acquired from American Type Culture Collection (ATCC; Manassas, VA). […] The growth media of incubated cells were changed every 2–3 days until they attained 70–80% confluence, after which they were sub-cultured for experiments and re-passaging. DMSO was used as the vehicle to prepare a 10 mM stock solution of the test compounds.
(§5) Stock solutions (10 mM) were prepared by dissolving each compound to be screened in DMSO.

A375 = test: MTT antiproliferative/cytotoxicity assay, A375; format: cell-based, human; details: melanoma, MTT, 48 h, read-out: IC50 A375
Method: as §1, §2, §3

SCC-12 = test: MTT antiproliferative/cytotoxicity assay, SCC-12; format: cell-based, human; details: for IC50: non-melanoma, MTT, 48 h, read-out: IC50 SCC-12
Method: as §4, §5

mushroom tyrosinase = molecular target: T1, mushroom tyrosinase (Agaricus bisporus, UniProt C7FF04); test: In vitro mushroom tyrosinase inhibition assay; format: biochemical; details: for inhibition at 500 µM: single-concentration screen, read-out: % Inhibition of tyrosinase; for IC50: > 500 = not biologically relevant, read-out: IC50 Value, mushroom tyrosinase inhibition (Table S1)
T1 construct: purchased Sigma-Aldrich Chemical Company (St. Louis, MO) and MP Biomedicals (Irvine, CA)
Method: The anti-tyrosinase potential of all the synthesised derivatives was determined by an enzymatic tyrosinase inhibition assay based on their ability to inhibit the substrate, L-tyrosine, from binding to the tyrosinase enzyme. […] Test samples were dissolved in DMSO at a concentration of 10 mM and then diluted to different concentrations with phosphate buffer (0.1 M, pH 6.8). Each well contained 40 µL of the sample with 80 µL of phosphate buffer solution (0.1 M, pH 6.8), 40 µL of tyrosinase enzyme (100 units/mL), and 40 µL L-tyrosine (2.5 mM). The mixture was incubated for 30 min at room temperature, and absorbance was measured at 490 nm. Each sample was accompanied by a sample blank containing all components except tyrosinase. […] The percentage of tyrosinase inhibition was calculated as follows: ((ΔAcontrol – ΔAsample)/ΔAcontrol) × 100. IC50 values denoted the sample concentration required to inhibit 50% tyrosinase activity (Table S1).

[2] = Homo sapiens, A-431, 48 h, non-melanoma, MTT, 48 h
[3] = IC50 HaCaT divided by IC50 A431
[4] = IC50 HaCaT divided by IC50 SCC-12
[5] = read-out: IC50 DPPH radical scavenging

T1 sequence (C7FF04 1-392 limits assumed): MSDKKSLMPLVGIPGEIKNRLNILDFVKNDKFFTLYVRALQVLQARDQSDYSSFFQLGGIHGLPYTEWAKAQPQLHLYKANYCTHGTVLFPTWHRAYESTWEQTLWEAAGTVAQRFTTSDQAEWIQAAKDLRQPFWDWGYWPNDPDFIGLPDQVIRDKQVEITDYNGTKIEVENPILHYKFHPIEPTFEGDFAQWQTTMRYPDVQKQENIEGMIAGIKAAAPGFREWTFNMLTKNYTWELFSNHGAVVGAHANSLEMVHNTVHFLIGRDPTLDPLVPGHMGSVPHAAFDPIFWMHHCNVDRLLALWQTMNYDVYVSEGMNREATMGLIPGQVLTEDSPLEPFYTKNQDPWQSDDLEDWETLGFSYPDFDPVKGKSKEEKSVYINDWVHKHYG

SMILES	IC50 (SK-MEL-28; Homo sapiens, SK-MEL-28, 48 h) [µM]	IC50 (HaCaT; Homo sapiens, HaCaT) [µM]	Percent Scavenging (DPPH) [1] [%]	IC50 (GFP-A431; [2]) [µM]	IC50 (A375; Homo sapiens, A-375, 48 h) [µM]	IC50 (SCC-12; Homo sapiens, SCC12, 48 h) [µM]	inhibition at 500 µM (mushroom tyrosinase) [%]	IC50 (mushroom tyrosinase) [µM]	also measured
COc1ccc(-n2nc(C)cc2-c2ccccc2)cc1 [P18, 1-(4-Methoxyphenyl)-3-methyl-5-phenyl-1H-pyrazole]	19.3 ± 2.4	49.6 ± 1.5	-24.28	25.9 ± 0.9	48 ± 2.1	21.9 ± 0.2	92.2 ± 3.7	156	selectivity index (SI) A431 (GFP-A431; [3]): 2.0; selectivity index (SI) SCC-12 (SCC-12; [4]): 2.3
Cc1cc(-c2ccccc2)n[nH]1 [P3, 5-Methyl-3-phenyl-1H-pyrazole]	59.1 ± 4.6	42.1 ± 3.4	-0.39	27.2 ± 0.9	54.8 ± 2.7	546 ± 20.7	42.6	> 500	selectivity index (SI) A431 (GFP-A431): 27.2 ± 0.9 (1.6); selectivity index (SI) SCC-12 (SCC-12): 546.5 ± 20.7 (0.1)
Cc1cc(-c2ccccc2)no1 [P11, 5-Methyl-3-phenylisoxazole]	34.5 ± 1.2	116 ± 10.1	-27.39	43.7 ± 2.7	57.8 ± 6.5	44.6 ± 1.3	88 ± 0.3	173	selectivity index (SI) A431 (GFP-A431; [3]): 2.6; selectivity index (SI) SCC-12 (SCC-12; [4]): 2.6
c1ccc(-c2cc(-c3ccccc3)n(-c3ccccc3)n2)cc1 [P13, 1,3,5-Triphenyl-1H-pyrazole]	154 ± 2.9	91.6 ± 4.1	19.44	181 ± 4.7	93.4 ± 6.4	52.8 ± 2.2	7.66	> 500	IC50 ([1]; N.A. = No Activity, > 1000 = not biologically relevant, read-out: IC50 Value, DPPH antioxidant activity (Table S4)): > 1000 µM
Cc1nn(-c2ccccc2)c2c1CCC2 [P8, 3-Methyl-1-phenyl-1,4,5,6-tetrahydrocyclopenta[c]pyrazole]	181 ± 4.7	44.5 ± 1.4	-2.57	72.2 ± 5.2	55.3 ± 3.8	120 ± 8.5	67.2 ± 0.2	190	
Cc1[nH]nc2c1CCc1ccccc1-2 [P5, 3-Methyl-4,5-dihydro-2H-benzo[g]indazole]	131 ± 2.4	265 ± 4.3	-10.48	42.1 ± 3.1	65.3 ± 4.2	77.6 ± 1.7	40	> 500	DPPH antioxidant activity (in words) [1]: inactivity; selectivity index (SI) A431 (GFP-A431; [3]): 6.3; selectivity index (SI) SCC-12 (SCC-12; [4]): 3.4
O=c1c(O)c(-c2ccc(O)c(O)c2)oc2cc(O)cc(O)c12 [quercetin, reference compound]			60						Percent Scavenging (DPPH) ([1]; listed as Quercetin): 60.83%
Cc1n[nH]c2c1CCC2 [P2, 3-Methyl-1,4,5,6-tetrahydrocyclopenta[c]pyrazole]	42.6 ± 1.5	44.2 ± 1.1	-5.84	43.9 ± 2.1	54.3 ± 1.6	246 ± 37.3	20.8	> 500	
Cc1cc(-c2ccccc2)n(-c2ccc(Cl)cc2)n1 [P17, 1-(4-Chlorophenyl)-3-methyl-5-phenyl-1H-pyrazole]	34.2 ± 3.9	72.4 ± 6	-23.30	19.7 ± 0.8	44.5 ± 3	23.4 ± 1.7	95.6 ± 1.1	165	selectivity index (SI) A431 (GFP-A431; [3]): 3.7; selectivity index (SI) SCC-12 (SCC-12; [4]): 3.1
Cc1cc(C(C)(C)C)c(O)c(C(C)(C)C)c1 [BHT, butylated hydroxytoluene, reference compound]									IC50 [1, 5]: 285 ± 7 µM
Cc1ccc(-c2cc(C(F)(F)F)nn2-c2ccc(S(N)(=O)=O)cc2)cc1 [Celecoxib, celecoxib, reference compound]		49.8 ± 8.2			27				IC50 (SK-MEL-28; Homo sapiens, SK-MEL-28): 11.4 ± 2.4 µM; IC50 (GFP-A431; Homo sapiens, A-431, 48 h): 7.4 µM; IC50 (A375): 26.8 ± 2.7 µM
O=C1O[C@H]([C@@H](O)CO)C(O)=C1O [ascorbic acid, reference compound]									IC50 [1, 5]: 25.2 ± 1.4 µM
N.N.[Cl][Pt][Cl] [Cisplatin, cisplatin, reference compound]									IC50 (SK-MEL-28): 14.2 ± 0.24 µM; IC50 (HaCaT): 3.4 ± 0.4 µM; IC50 (GFP-A431; non-melanoma, MTT, 48 h): 7.7 ± 0.3 µM; IC50 (A375): 1.49 ± 0.44 µM; IC50 (SCC-12): 4.4 ± 0.2 µM
OC[C@H]1O[C@@H](Oc2ccc(O)cc2)[C@H](O)[C@@H](O)[C@@H]1O [arbutin, 4-hydroxyphenyl β-D-glucopyranoside, reference compound]							59 ± 0.4		
Cc1cc(-c2ccccc2)n(-c2ccc(S(N)(=O)=O)cc2)n1 [P19, 4-(3-Methyl-5-phenyl-1H-pyrazol-1-yl)benzenesulfonamide]	40.5 ± 3	57 ± 1.3	-18.51		47.1 ± 4.2		21.2	> 500	
